Drawing on ChEMBL document CHEMBL1155712, “Cytotoxic polyacetylenes from the twigs of Ochanostachys amentacea” (2001), this text covers EC50 for 3 compounds.

Common to all, as to type: functional
What all share (conditions): read-out: ED50 (the source's name)

For assay [1], the system named is KB. Kind of assay: Cytotoxicity against multidrug-resistant human KB cells in presence of vinblastine.
Assay [2] relates to KB. Kind of assay: Cytotoxicity against multidrug-resistant human KB cells in absence of vinblastine.
For another assay, the system named is LNCaP. Kind of assay: Cytotoxicity against human LNCAP cells.
The subject of another assay is SW626. Kind of assay: Cytotoxicity against human SW626 cells.
A further assay deals with SK-N-SH. Kind of assay: Cytotoxicity against human SK-N-SH cells.
Another assay relates to M109. Kind of assay: Cytotoxicity against mouse M109 cells.
The next assay relates to P388. Kind of assay: Cytotoxicity against mouse P388 cells.
Assay [3] is described as follows: Cytotoxicity against human BC1 cells.
Another assay concerns Lu1. Kind of assay: Cytotoxicity against human Lu1 cells.
A further assay concerns Col2. Kind of assay: Cytotoxicity against human Col2 cells.
The subject of assay [4] is KB. Kind of assay: Cytotoxicity against human KB cells.

Structures are written as SMILES. ≈ marks a conversion by molar mass, not a printed value.

Regarding `C[C@H](O)C#CC#CC#CC#CCCCCCCCC(=O)O` [MINQUARTYNOIC ACID], the EC50 in the assay on KB [1] came out at 2.8 µg/mL; with KB [2], 4.3 µg/mL (≈ 15.1 µM); with LNCaP it was 1.6 µg/mL (≈ 5.63 µM); in the assay on SW626, 4.1 µg/mL (≈ 14.4 µM); with SK-N-SH it was 1.4 µg/mL (≈ 4.92 µM); in the assay with M109, 3.7 µg/mL (≈ 13 µM). Besides, the EC50 came to 0.18 µg/mL (≈ 0.633 µM) in the assay on P388; 3.5 µg/mL (≈ 12.3 µM) in assay [3]; 4.1 µg/mL (≈ 14.4 µM) in the assay with Lu1; 5.5 µg/mL (≈ 19.3 µM) in the assay on Col2; 3.7 µg/mL (≈ 13 µM) in the assay with KB [4].

Consider `C[C@H](O)/C=C/C#CC#CC#CCCCCCCCC(=O)O`, for which the EC50 with KB [1] was over 20 µg/mL; in the assay with KB [2] it was over 20 µg/mL; with LNCaP it was 0.3 µg/mL (≈ 1.05 µM); in the assay with SW626, 0.36 µg/mL (≈ 1.26 µM); in the assay with SK-N-SH, 3.7 µg/mL (≈ 12.9 µM); in the assay with M109 it was 5.4 µg/mL (≈ 18.9 µM). The EC50 in assay [3] was over 20 µg/mL; with Lu1, over 20 µg/mL; in the assay on Col2, 9.9 µg/mL (≈ 34.6 µM); in the assay on KB [4], 1.1 µg/mL (≈ 3.84 µM).

As to `O=C(O)CCCCCCCC#CC#CC#CC#CC(O)CO` (single isomer, unassigned), the EC50 with KB [1] is 11.9 µg/mL; in the assay with KB [2], 13.4 µg/mL (≈ 44.6 µM); in the assay with LNCaP, 9.2 µg/mL (≈ 30.6 µM); with SW626, 19.4 µg/mL (≈ 64.6 µM); in the assay on SK-N-SH it was 6.7 µg/mL (≈ 22.3 µM); in the assay on M109, 10.1 µg/mL (≈ 33.6 µM). Besides, the EC50 was over 20 µg/mL in assay [3], 14.6 µg/mL (≈ 48.6 µM) in the assay on Lu1, over 20 µg/mL with Col2 and 2.6 µg/mL (≈ 8.66 µM) in the assay on KB [4].
